Data from ChEMBL document CHEMBL1131670, “N-hydroxyurea and hydroxamic acid inhibitors of cyclooxygenase and 5-lipoxygenase” (Bioorg Med Chem Lett, 1999).

Experiments:
[1] = target: T1, Polyunsaturated fatty acid 5-lipoxygenase (Rattus norvegicus, UniProt P12527); test: Inhibitory activity against 5-lipoxygenase (5-LO) using broken rat […] leukemia cells (RBL-1); format: cell-based
T1 sequence (P12527 whole entry): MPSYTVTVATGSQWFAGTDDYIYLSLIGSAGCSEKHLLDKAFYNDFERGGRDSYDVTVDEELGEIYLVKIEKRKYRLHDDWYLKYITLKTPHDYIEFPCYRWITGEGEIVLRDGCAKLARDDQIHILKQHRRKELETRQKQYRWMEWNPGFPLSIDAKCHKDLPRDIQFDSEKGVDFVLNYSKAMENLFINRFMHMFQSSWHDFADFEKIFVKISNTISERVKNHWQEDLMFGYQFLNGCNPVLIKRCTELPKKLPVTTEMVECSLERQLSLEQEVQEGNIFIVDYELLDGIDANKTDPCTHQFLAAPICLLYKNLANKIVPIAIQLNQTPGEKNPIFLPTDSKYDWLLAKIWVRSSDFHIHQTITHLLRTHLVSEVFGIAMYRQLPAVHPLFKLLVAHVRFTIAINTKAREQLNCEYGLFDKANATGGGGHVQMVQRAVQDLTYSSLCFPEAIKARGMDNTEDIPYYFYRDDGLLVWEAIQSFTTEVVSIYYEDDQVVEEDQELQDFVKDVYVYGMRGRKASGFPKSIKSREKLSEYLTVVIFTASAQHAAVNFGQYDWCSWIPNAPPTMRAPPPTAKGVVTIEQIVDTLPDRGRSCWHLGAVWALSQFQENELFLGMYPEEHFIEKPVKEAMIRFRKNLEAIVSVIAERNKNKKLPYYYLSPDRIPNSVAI

[2] = target: T2, Cyclooxygenase (Rattus norvegicus, UniProt P35355+Q63921); test: Inhibitory activity against cyclooxygenase (COX) in intact rat […] leukemia cells (RBL-1); format: cell-based
T2 sequence (P35355 whole entry): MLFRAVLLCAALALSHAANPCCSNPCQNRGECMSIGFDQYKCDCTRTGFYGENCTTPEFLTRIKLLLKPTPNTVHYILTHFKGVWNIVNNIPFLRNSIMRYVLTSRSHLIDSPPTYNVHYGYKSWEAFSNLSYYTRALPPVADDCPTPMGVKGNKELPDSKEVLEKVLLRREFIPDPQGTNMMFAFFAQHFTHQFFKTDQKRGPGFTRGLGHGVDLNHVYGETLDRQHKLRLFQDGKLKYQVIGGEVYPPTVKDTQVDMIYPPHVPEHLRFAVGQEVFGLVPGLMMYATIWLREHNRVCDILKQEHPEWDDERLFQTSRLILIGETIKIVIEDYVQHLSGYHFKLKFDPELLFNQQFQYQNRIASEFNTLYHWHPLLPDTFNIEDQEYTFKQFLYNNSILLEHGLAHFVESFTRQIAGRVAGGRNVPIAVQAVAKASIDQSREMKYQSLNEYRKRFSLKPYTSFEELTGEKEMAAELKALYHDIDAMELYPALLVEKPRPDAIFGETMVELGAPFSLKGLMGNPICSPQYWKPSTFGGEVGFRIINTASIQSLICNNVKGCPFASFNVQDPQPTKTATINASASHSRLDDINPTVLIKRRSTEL
T2 sequence (Q63921 whole entry): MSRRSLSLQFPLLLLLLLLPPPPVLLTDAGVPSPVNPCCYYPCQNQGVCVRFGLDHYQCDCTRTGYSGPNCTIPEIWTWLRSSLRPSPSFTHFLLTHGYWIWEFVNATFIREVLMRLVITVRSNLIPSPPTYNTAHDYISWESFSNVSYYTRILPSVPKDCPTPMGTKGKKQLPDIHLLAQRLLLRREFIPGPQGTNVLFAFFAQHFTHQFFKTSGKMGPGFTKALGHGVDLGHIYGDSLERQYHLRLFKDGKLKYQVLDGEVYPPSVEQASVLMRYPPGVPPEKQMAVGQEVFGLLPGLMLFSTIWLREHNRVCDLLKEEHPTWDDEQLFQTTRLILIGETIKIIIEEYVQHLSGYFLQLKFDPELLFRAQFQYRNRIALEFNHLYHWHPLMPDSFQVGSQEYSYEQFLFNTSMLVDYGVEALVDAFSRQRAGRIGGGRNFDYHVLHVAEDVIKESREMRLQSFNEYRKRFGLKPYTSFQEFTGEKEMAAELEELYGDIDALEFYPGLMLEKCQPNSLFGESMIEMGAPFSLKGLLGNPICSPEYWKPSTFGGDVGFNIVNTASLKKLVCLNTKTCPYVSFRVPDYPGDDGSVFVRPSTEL

[3] = target: T2, Cyclooxygenase; test: (§1) Inhibitory activity against Cyclooxygenase (COX) using broken rat […] leukemia cells (RBL-1); format: cell-based
[4] = target: T3, Cyclooxygenase (Homo sapiens) (UniProt P35354+P23219); test: Inhibitory activity against cyclooxygenase (COX) in after oral administration of 5 mg/kg at 24 hr r; format: organism-based; parameters: dose 5 mg/kg; settings: Canis lupus familiaris; at 5 mg/kg
[5] = target: T4, Polyunsaturated fatty acid 5-lipoxygenase (Homo sapiens) (UniProt P09917); test: Inhibitory activity against 5-lipoxygenase (5-LO) in after oral administration of 5 mg/kg at 8 hr to canine; format: organism-based; parameters: dose 5 mg/kg; settings: Canis lupus familiaris; target entry is the homologue from another species; at 5 mg/kg
T4 sequence (whole entry): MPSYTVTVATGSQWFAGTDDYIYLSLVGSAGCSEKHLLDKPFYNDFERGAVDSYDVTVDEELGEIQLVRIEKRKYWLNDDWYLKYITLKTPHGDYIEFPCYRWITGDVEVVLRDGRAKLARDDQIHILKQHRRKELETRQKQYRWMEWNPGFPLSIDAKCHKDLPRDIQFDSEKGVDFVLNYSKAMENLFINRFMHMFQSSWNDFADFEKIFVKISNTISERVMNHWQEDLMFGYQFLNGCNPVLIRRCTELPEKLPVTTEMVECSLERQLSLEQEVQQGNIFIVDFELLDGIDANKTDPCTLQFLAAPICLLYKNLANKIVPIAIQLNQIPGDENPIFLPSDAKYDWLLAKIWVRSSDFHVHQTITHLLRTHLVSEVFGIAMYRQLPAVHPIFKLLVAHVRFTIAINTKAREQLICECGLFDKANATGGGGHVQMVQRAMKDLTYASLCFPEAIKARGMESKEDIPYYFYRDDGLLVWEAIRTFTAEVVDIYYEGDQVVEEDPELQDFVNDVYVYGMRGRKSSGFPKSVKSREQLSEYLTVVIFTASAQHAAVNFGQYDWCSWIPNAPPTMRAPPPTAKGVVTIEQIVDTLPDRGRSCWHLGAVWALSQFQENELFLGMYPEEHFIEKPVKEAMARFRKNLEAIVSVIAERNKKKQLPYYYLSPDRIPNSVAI

[6] = target: T4, Polyunsaturated fatty acid 5-lipoxygenase (Homo sapiens); test: Inhibitory activity against 5-lipoxygenase (5-LO) in after oral administration of 5 mg/kg at 4 hr to canine; format: organism-based; parameters: dose 5 mg/kg; settings: Canis lupus familiaris; target entry is the homologue from another species; at 5 mg/kg
[7] = target: T3, Cyclooxygenase (Homo sapiens); test: Inhibitory activity against cyclooxygenase (COX) in after oral administration of 5 mg/kg at 8 hr to canine; format: organism-based; parameters: dose 5 mg/kg; settings: Canis lupus familiaris; target entry is the homologue from another species; at 5 mg/kg
[8] = target: T3, Cyclooxygenase (Homo sapiens); test: Inhibitory activity against cyclooxygenase (COX) in after oral administration of 5 mg/kg at 4 hr to canine; format: organism-based; parameters: dose 5 mg/kg; settings: Canis lupus familiaris; target entry is the homologue from another species; at 5 mg/kg
[9] = target: T4, Polyunsaturated fatty acid 5-lipoxygenase (Homo sapiens); test: Inhibitory activity against 5-lipoxygenase (5-LO) in after oral administration of 5 mg/kg at 24 hr r to canine; format: organism-based; parameters: dose 5 mg/kg; settings: Canis lupus familiaris; target entry is the homologue from another species; at 5 mg/kg
[10] = target: T4, Polyunsaturated fatty acid 5-lipoxygenase (Homo sapiens); test: Inhibitory activity against 5-lipoxygenase (5-LO) in after oral administration of 5 mg/kg at 2 hr to canine; format: organism-based; parameters: dose 5 mg/kg; settings: Canis lupus familiaris; target entry is the homologue from another species; at 5 mg/kg
[11] = target: T3, Cyclooxygenase (Homo sapiens); test: Inhibitory activity against cyclooxygenase (COX) in after oral administration of 5 mg/kg at 2 hr to canine; format: organism-based; parameters: dose 5 mg/kg; settings: Canis lupus familiaris; target entry is the homologue from another species; at 5 mg/kg
[12] = target: T4, Polyunsaturated fatty acid 5-lipoxygenase (Homo sapiens); test: Inhibitory activity against 5-lipoxygenase (5-LO) in after oral administration of 5 mg/kg at 2 hr; format: organism-based; parameters: dose 5 mg/kg; settings: Canis lupus familiaris; at 5 mg/kg
[13] = target: T3, Cyclooxygenase (Homo sapiens); test: Inhibitory activity against cyclooxygenase (COX) in after oral administration of 5 mg/kg at 4 hr; format: organism-based; parameters: dose 5 mg/kg; settings: Canis lupus familiaris; at 5 mg/kg
[14] = target: T4, Polyunsaturated fatty acid 5-lipoxygenase (Homo sapiens); test: Inhibitory activity against 5-lipoxygenase (5-LO) in after oral administration of 5 mg/kg at 24 hr r; format: organism-based; parameters: dose 5 mg/kg; settings: Canis lupus familiaris; at 5 mg/kg
[15] = target: T4, Polyunsaturated fatty acid 5-lipoxygenase (Homo sapiens); test: Inhibitory activity against 5-lipoxygenase (5-LO) in after oral administration of 5 mg/kg at 8 hr; format: organism-based; parameters: dose 5 mg/kg; settings: Canis lupus familiaris; at 5 mg/kg
[16] = target: T4, Polyunsaturated fatty acid 5-lipoxygenase (Homo sapiens); test: Inhibitory activity against 5-lipoxygenase (5-LO) in after oral administration of 5 mg/kg at 4 hr; format: organism-based; parameters: dose 5 mg/kg; settings: Canis lupus familiaris; at 5 mg/kg
[17] = target: T3, Cyclooxygenase (Homo sapiens); test: Inhibitory activity against cyclooxygenase (COX) in after oral administration of 5 mg/kg at 8 hr; format: organism-based; parameters: dose 5 mg/kg; settings: Canis lupus familiaris; at 5 mg/kg
[18] = target: T5, Cyclooxygenase (Rattus norvegicus) (UniProt P35355+Q63921); test: Inhibitory activity against Cyclooxygenase (COX) using broken rat […] leukemia cells (RBL-1) at 10 uM; format: cell-based
[19] = target: T6, Polyunsaturated fatty acid 5-lipoxygenase (Rattus norvegicus) (UniProt P12527); test: Inhibitory activity against 5-lipoxygenase (5-LO) using broken rat […] leukemia cells (RBL-1) at 10 uM; format: cell-based
T6 sequence (whole entry): T1 sequence (P12527 whole entry)

[20] = target: T7, Prostaglandin G/H synthase 1 (Ovis aries) (UniProt P05979); test: Inhibitory activity against Cyclooxygenase using sheep seminal vesicle (SSV) enzyme (COX-1) Inhibition at 10 uM; format: tissue-based
T7 sequence (whole entry): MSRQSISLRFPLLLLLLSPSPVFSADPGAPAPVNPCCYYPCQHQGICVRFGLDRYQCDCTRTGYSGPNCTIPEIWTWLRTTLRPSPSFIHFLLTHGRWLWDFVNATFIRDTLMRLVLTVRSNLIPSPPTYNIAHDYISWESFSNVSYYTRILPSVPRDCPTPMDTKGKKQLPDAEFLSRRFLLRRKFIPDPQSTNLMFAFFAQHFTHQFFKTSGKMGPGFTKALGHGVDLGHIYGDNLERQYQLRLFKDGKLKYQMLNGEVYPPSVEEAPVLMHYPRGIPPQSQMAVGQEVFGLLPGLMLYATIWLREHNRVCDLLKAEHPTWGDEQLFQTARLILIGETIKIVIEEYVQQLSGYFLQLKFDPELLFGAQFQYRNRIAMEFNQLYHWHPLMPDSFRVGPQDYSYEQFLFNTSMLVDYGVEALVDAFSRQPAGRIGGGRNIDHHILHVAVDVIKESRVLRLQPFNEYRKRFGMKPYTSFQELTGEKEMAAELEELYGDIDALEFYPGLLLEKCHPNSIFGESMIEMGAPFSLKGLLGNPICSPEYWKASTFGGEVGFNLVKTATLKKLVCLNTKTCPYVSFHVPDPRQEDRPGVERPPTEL

[21] = target: T6, Polyunsaturated fatty acid 5-lipoxygenase (Rattus norvegicus); test: Inhibitory activity against 5-lipoxygenase (5-LO) using broken rat […] leukemia cells (RBL-1)at 10 uM; format: cell-based
[22] = target: T7, Prostaglandin G/H synthase 1 (Ovis aries); test: Inhibitory activity against Cyclooxygenase using sheep seminal vesicle (SSV) enzyme (COX-1) at 10 uM; format: tissue-based
[23] = target: T5, Cyclooxygenase (Rattus norvegicus); test: as §1; format: cell-based; settings: concentration not given here

## COc1ccc(-n2nc(CCC(=O)N(C)O)cc2-c2ccc(Cl)cc2)cc1 [TEPOXALIN]
[1]
  IC50: 1700 nM
[2]
  IC50: 2850 nM
[3]
  IC50: 4200 nM

## COc1ccc(-n2nc(C#CCN(O)C(N)=O)cc2-c2ccc(C)cc2)cc1
[4]
  inhibition: 11%
[5]
  inhibition: 15%
[6]
  inhibition: 32%
[7]
  inhibition: 46%
[2]
  IC50: 12100 nM
[8]
  inhibition: 76%
[9]
  inhibition: 10%
[3]
  IC50: 310 nM
[10]
  inhibition: 53%
[11]
  inhibition: 82%

## COc1ccc(-n2nc(C#CC(C)N(O)C(C)=O)cc2-c2ccc(Cl)cc2)cc1 (stereo not drawn)
[4]
  inhibition: 68%
[12]
  inhibition: 34%
[13]
  inhibition: 75%
[14]
  inhibition: 12%
[15]
  inhibition: 31%
[16]
  inhibition: 20%
[17]
  inhibition: 62%
[11]
  inhibition: 92%

## CNC(=O)N(O)C(C)C#Cc1cc(-c2ccc(Cl)cc2)n(-c2ccc(OC)cc2)n1 (stereo not drawn)
[18]
  inhibition: 0%
[19]
  inhibition: 79%
[20]
  inhibition: 5%

## COc1ccc(-n2nc(C#CCN(O)C(C)=O)cc2-c2ccc(C)cc2)cc1
[21]
  inhibition: 100%
[22]
  inhibition: 74%
[2]
  IC50: 30 nM
[23]
  inhibition: 100%
